Laboratory results from US20250230193A1, “CYCLIC COMPOUND HAVING SELECTIVE KRAS INHIBITORY EFFECT ON HRAS AND NRAS” (CHUGAI SEIYAKU KABUSHIKI KAISHA, priority 2022, published 2025).
*1 amine or outer side, *2 acyl side, *3 side chain or, on linkers, in order; H or OH if unused. Where a SMILES comes first, the peptide text is derived from it. Bridges are numbered along the chain shown (N, C = ends). [ ]: non-standard residue; d: D form. The star is where a group is joined. hPhe(3-Cl-4-CF3) = N[C@@H](CCc1ccc(C(F)(F)F)c(Cl)c1)C(=O)O; X18 = C=CCCN([C@@H](Cc1ccc(C(F)(F)F)cc1)C(=O)[*:2])[*:1]; NPrPhe(4-CF3) = CCCN[C@@H](Cc1ccc(C(F)(F)F)cc1)C(=O)O; NMePhe(4-Me) = CN[C@@H](Cc1ccc(C)cc1)C(=O)O; NMeGly(cPent) = CN[C@H](C(=O)O)C1CCCC1; Pro(4,4-F2) = O=C(O)[C@@H]1CC(F)(F)CN1; NMeD = CN[C@@H](CC(=O)O)C(=O)O; NMeL = CN[C@@H](CC(C)C)C(=O)O; Morpholide = C1CN(*)CCO1; NMeA = CN[C@@H](C)C(=O)O; NMeAib = CNC(C)(C)C(=O)O; Nle = CCCC[C@H](N)C(=O)O; Piperidide = C1CCN(*)CC1; Ac5c = NC1(C(=O)O)CCCC1; Aze = O=C(O)[C@@H]1CCN1; Ac4c = NC1(C(=O)O)CCC1; Sar = CNCC(=O)O

Columns and labels:
[1] = target: GDP-bound NRAS wild-type protein (Homo sapiens, UniProt P01111); assay: Binding to NRAS by surface plasmon resonance (SPR), Single Cycle Kinetics; conditions: for NRAS/KRAS (ratio of KD value with respect to NRAS to KD value with respect to KRAS) / NRAS/KRAS (ratio of KD value for NRAS to KD value for KRAS): GDP-bound NRAS wild-type vs GDP-bound KRAS wild-type
[2] = target: GDP-bound HRAS wild-type protein (Homo sapiens, UniProt P01112); assay: Binding to HRAS by surface plasmon resonance (SPR), Single Cycle Kinetics; conditions: for HRAS/KRAS (ratio of KD value with respect to HRAS to KD value with respect to KRAS) / HRAS/KRAS (ratio of KD value for HRAS to KD value for KRAS): GDP-bound HRAS wild-type vs GDP-bound KRAS wild-type
GDP-bound HRAS wild-type protein, sequence (P01112 whole entry): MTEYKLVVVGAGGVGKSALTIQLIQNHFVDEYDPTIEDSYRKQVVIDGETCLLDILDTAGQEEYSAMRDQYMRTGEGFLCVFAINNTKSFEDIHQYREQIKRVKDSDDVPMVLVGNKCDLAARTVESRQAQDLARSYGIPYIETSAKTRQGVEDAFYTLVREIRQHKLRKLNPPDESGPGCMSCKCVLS

GDP-bound NRAS wild-type protein, sequence (P01111 whole entry): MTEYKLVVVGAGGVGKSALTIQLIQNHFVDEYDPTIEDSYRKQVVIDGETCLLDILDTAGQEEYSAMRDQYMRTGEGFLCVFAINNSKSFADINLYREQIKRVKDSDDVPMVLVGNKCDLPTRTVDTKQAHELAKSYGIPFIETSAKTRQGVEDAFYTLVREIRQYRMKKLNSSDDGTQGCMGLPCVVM

## CCC[C@H]1C(=O)N[C@@H]([C@@H](C)CC)C(=O)N(C)CC(=O)N(C)[C@H]2C/C=C\CCN(C2=O)[C@@H](Cc2ccc(C(F)(F)F)cc2)C(=O)N(C)CC(=O)N[C@@H](CCc2ccc(C(F)(F)F)c(OC)c2)C(=O)N2C[C@@H](C)C[C@H]2C(=O)N(C)C2(CCC2)C(=O)N(C)[C@@H](C2CCCC2)C(=O)N(C)[C@H](C(=O)N(C)C)CC(=O)N1C [PP2358]
[1]; SPR
  NRAS/KRAS (ratio of KD value with respect to NRAS to KD value with respect to KRAS): A (a compound having 10 or more and less than 20 is denoted as A)
[2]; SPR
  HRAS/KRAS (ratio of KD value with respect to HRAS to KD value with respect to KRAS): B (a compound having 3 or more and less than 10 is denoted as B)

## CCO[C@@H]1C[C@H]2C(=O)NC3(CCC3)C(=O)N(C)[C@@H](C3CCCC3)C(=O)N(C)[C@H](C(=O)N(C)C)CC(=O)N(C)[C@@H](CC)C(=O)N[C@@H]([C@@H](C)CC)C(=O)N(C)CC(=O)N(C)[C@H]3CCCCN(C3=O)[C@@H](Cc3ccc(C(F)(F)F)cc3)C(=O)N(C)CC(=O)N[C@@H](CCc3cc(F)c(C(F)(F)F)c(F)c3)C(=O)N2C1 [PP0693]
[1]; SPR
  NRAS/KRAS (ratio of KD value with respect to GDP-bound NRAS wild-type protein to KD value with respect to KRAS): C (A compound having a KD ratio of 0.1 or more and less than 3 is denoted as C)
[2]; SPR
  HRAS/KRAS (ratio of KD value with respect to GDP-bound HRAS wild-type protein to KD value with respect to KRAS): C (A compound having a KD ratio of 0.1 or more and less than 3 is denoted as C)

## CCO[C@@H]1C[C@H]2C(=O)NC3(CCC3)C(=O)N(C)[C@@H](C3CCCC3)C(=O)N(C)[C@H](C(=O)N(C)C)CC(=O)N(C)[C@@H](Cc3cccc(C#N)c3)C(=O)N[C@@H]([C@@H](C)CC)C(=O)N(C)CC(=O)N(C)[C@H]3CCCCCN(C3=O)[C@@H](Cc3ccc(C(F)(F)F)cc3)C(=O)N(C)CC(=O)N[C@@H](CCc3cc(F)c(C(F)(F)F)c(F)c3)C(=O)N2C1 [PP1172]
[1]; KD ratio, SPR
  NRAS/KRAS (ratio of KD value with respect to NRAS to KD value with respect to KRAS): B (a compound having 3 or more and less than 10 is denoted as B)
[2]; KD ratio, SPR
  HRAS/KRAS (ratio of KD value with respect to HRAS to KD value with respect to KRAS): B (a compound having 3 or more and less than 10 is denoted as B)

## C=CCCN1C(=O)[C@@H]2CCN2C(=O)[C@H](C)N(C)C(=O)[C@H]([C@@H](C)CC)NC(=O)[C@H](CC(C)C)N(C)C(=O)C[C@@H](C(=O)N2CCOCC2)N(C)C(=O)[C@H](C2CCCC2)N(C)C(=O)C2(CCCC2)NC(=O)[C@@H]2CCCN2C(=O)[C@H](CCc2ccc(C(F)(F)F)c(Cl)c2)NC(=O)CN(C)C(=O)[C@@H]1Cc1ccc(C(F)(F)F)cc1 [PP0115] ([NMeL]I[NMeA][Aze][X18][Sar][hPhe(3-Cl-4-CF3)]P[Ac5c][NMeGly(cPent)][NMeD]-Morpholide; lactam N-11)
[1]; SPR
  NRAS/KRAS (ratio of KD for GDP-bound NRAS wild-type to KD for KRAS): C (A compound having a KD ratio of 0.1 or more and less than 3 is denoted as C)
[2]; SPR
  HRAS/KRAS (ratio of KD for GDP-bound HRAS wild-type to KD for KRAS): C (A compound having a KD ratio of 0.1 or more and less than 3 is denoted as C)

## CCC[C@H]1C(=O)N[C@@H](CC(C)C)C(=O)N2C[C@@H](OC)C[C@H]2C(=O)N(C)[C@H]2C/C=C\CCN(C2=O)[C@@H](Cc2ccc(C)cc2)C(=O)N(C)CC(=O)N[C@@H](CCc2ccc(C(F)(F)F)c(Cl)c2)C(=O)N2C[C@H](OCC)C[C@H]2C(=O)NC2(CC(C)(C)C2)C(=O)N(C)[C@@H](C2CCCC2)C(=O)N(C)[C@H](C(=O)N(C)C)CC(=O)N1C [PP2555]
[1]; class symbols
  NRAS/KRAS (ratio of KD value with respect to GDP-bound NRAS wild-type protein to KD value with respect to KRAS): A (a compound having 10 or more and less than 20 is denoted as A)
[2]; class symbols
  HRAS/KRAS (ratio of KD value with respect to GDP-bound HRAS wild-type protein to KD value with respect to KRAS): B (a compound having 3 or more and less than 10 is denoted as B)

## CCCC[C@H]1C(=O)N[C@@H]([C@@H](C)CC)C(=O)N(C)CC(=O)N(C)[C@H]2C/C=C\CCN(C2=O)[C@@H](Cc2ccc(C(F)(F)F)cc2)C(=O)N(C)CC(=O)N[C@@H](CCc2cc(F)c(C(F)(F)F)c(F)c2)C(=O)N2C[C@H](OCC)C[C@H]2C(=O)NC2(CC(C)(C)C2)C(=O)N(C)[C@@H](C2CCCC2)C(=O)N(C)[C@H](C(=O)N(C)C)CC(=O)N1C [PP1649]
[1]; KD ratio, SPR
  NRAS/KRAS (ratio of KD value for NRAS to KD value for KRAS): A (a compound having 10 or more and less than 20 is denoted as A)
[2]; KD ratio, SPR
  HRAS/KRAS (ratio of KD value for HRAS to KD value for KRAS): B (a compound having 3 or more and less than 10 is denoted as B)

## CCO[C@@H]1C[C@H]2C(=O)NC3(CCCC3)C(=O)N(C)[C@@H](C3CCCC3)C(=O)N(C)[C@H](C(=O)N(C)C)CC(=O)N(C)[C@@H](CC(C)C)C(=O)N[C@@H]([C@@H](C)CC)C(=O)N(C)CC(=O)N(C)[C@H]3C/C=C\CCN(C3=O)[C@@H](Cc3ccc(C(F)(F)F)cc3)C(=O)N(C)CC(=O)N[C@@H](CCc3ccc(Cl)c(Cl)c3)C(=O)N2C1 [PP2837]
[1]; class symbols
  NRAS/KRAS (ratio of KD value with respect to GDP-bound NRAS wild-type protein to KD value with respect to KRAS): AA (a compound having 20 or more is denoted as AA)
[2]; class symbols
  HRAS/KRAS (ratio of KD value with respect to GDP-bound HRAS wild-type protein to KD value with respect to KRAS): A (a compound having 10 or more and less than 20 is denoted as A)

## CCC[C@@H]1C[C@H]2C(=O)NC3(CC(C)(C)C3)C(=O)N(C)[C@@H](C3CCCC3)C(=O)N(C)[C@H](C(=O)N(C)C)CC(=O)N(C)[C@@H](CC)C(=O)N[C@@H]([C@@H](C)CC)C(=O)N(C)CC(=O)N(C)[C@H]3C/C=C\CCN(C3=O)[C@@H](Cc3ccc(C)cc3)C(=O)N(C)CC(=O)N[C@@H](CCc3cc(F)c(C(F)(F)F)c(F)c3)C(=O)N2C1 [PP2208]
[1]; SPR
  NRAS/KRAS (ratio of KD value with respect to NRAS to KD value with respect to KRAS): A (a compound having 10 or more and less than 20 is denoted as A)
[2]; SPR
  HRAS/KRAS (ratio of KD value with respect to HRAS to KD value with respect to KRAS): A (a compound having 10 or more and less than 20 is denoted as A)

## CCCN1C(=O)[C@@H]2CCN2C(=O)[C@H](C)N(C)C(=O)[C@H]([C@@H](C)CC)NC(=O)[C@H](CC(C)C)N(C)C(=O)C[C@@H](C(=O)N2CCOCC2)NC(=O)[C@H](C2CCCC2)N(C)C(=O)C2(CCC2)NC(=O)[C@@H]2CC(F)(F)CN2C(=O)[C@H](CCc2ccc(C(F)(F)F)c(Cl)c2)NC(=O)CN(C)C(=O)[C@@H]1Cc1ccc(C(F)(F)F)cc1 [PP0346] ([NMeL]I[NMeA][Aze][NPrPhe(4-CF3)][Sar][hPhe(3-Cl-4-CF3)][Pro(4,4-F2)][Ac4c][NMeGly(cPent)]D-Morpholide; lactam N-11)
[1]; SPR
  NRAS/KRAS (ratio of KD for GDP-bound NRAS wild-type to KD for KRAS): C (A compound having a KD ratio of 0.1 or more and less than 3 is denoted as C)
[2]; SPR
  HRAS/KRAS (ratio of KD for GDP-bound HRAS wild-type to KD for KRAS): B (a compound having 3 or more and less than 10 is denoted as B)

## CC[C@H](C)[C@@H]1NC(=O)[C@H](CC2CC2)N(C)C(=O)C[C@@H](C(=O)N(C)C)N(C)C(=O)[C@H](C2CCCC2)N(C)C(=O)C2(CC(C)(C)C2)NC(=O)[C@@H]2C[C@H](C)CN2C(=O)[C@H](CCc2ccc(C(F)(F)F)c(OC)c2)NC(=O)CN(C)C(=O)[C@H](Cc2ccc(C)cc2)N2CC/C=C\C[C@@H](C2=O)N(C)C(=O)CN(C)C1=O [PP1898]
[1]; KD ratio, SPR
  NRAS/KRAS (ratio of KD value for NRAS to KD value for KRAS): B (a compound having 3 or more and less than 10 is denoted as B)
[2]; KD ratio, SPR
  HRAS/KRAS (ratio of KD value for HRAS to KD value for KRAS): B (a compound having 3 or more and less than 10 is denoted as B)

## CCCC[C@@H]1NC(=O)[C@H](CCc2ccc(C(F)(F)F)c(Cl)c2)NC(=O)CN(C)C(=O)[C@H](Cc2ccc(C)cc2)N(C)C(=O)[C@@H]2CCN2C(=O)[C@H](C)N(C)C(=O)[C@H]([C@@H](C)CC)NC(=O)[C@H](CC(C)C)N(C)C(=O)C[C@@H](C(=O)N2CCCCC2)N(C)C(=O)[C@H](CC(C)C)NC(=O)C(C)(C)N(C)C1=O [PP0047] ([NMeL]I[NMeA][Aze][NMePhe(4-Me)][Sar][hPhe(3-Cl-4-CF3)][Nle][NMeAib]L[NMeD]-Piperidide; lactam N-11)
[1]; SPR
  NRAS/KRAS (ratio of KD for GDP-bound NRAS wild-type to KD for KRAS): C (A compound having a KD ratio of 0.1 or more and less than 3 is denoted as C)
[2]; SPR
  HRAS/KRAS (ratio of KD for GDP-bound HRAS wild-type to KD for KRAS): C (A compound having a KD ratio of 0.1 or more and less than 3 is denoted as C)
